These results are taken from patent US20090275583A1, “ANTIVIRAL COMPOUNDS AND USE THEREOF” (Myriad Genetics, Incorporated, priority 2006, published 2009).

What is called EC50 is the concentration at which the effect is half-maximal. Usually IC50 stands for the concentration that gives 50% inhibition.

Each structure is given as a SMILES string.

Assay [1] concerns HIV-1 laboratory strain, NL4-3. Nature of the assay: MT-4 cytoprotection assay. The following applies: Human immunodeficiency virus 1, NL43, MT4, 96 h; MT-4 cells, four days incubation, WST-1 readout; read-out: MT4 EC50. The assay is classed as cell-based. Summed up:
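MT-4 cells mock- or batch-infected with NL4-3 (MOI 0.0005) for 2 h, washed, then cultured 4 days with increasing compound concentrations. Viability read by WST-1 tetrazolium reduction: cytoprotection in infected cells, toxicity in mock-infected cells.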

Another assay concerns HIV-1NL4-3. As to the kind of experiment: P4-MAGI assay. The assay is classed as cell-based. The following applies: Human immunodeficiency virus 1, 24 h, P4 cells, 24 hour incubation, β-galactosidase expression; read-out: P4-MAGI IC50. Summed up: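 Cytotoxicity (TC50, 50% growth inhibition) came from WST-1 in uninfected cells. For antiviral activity, compound at rising concentrations was added immediately after HIV-1NL4-3 inoculation (MOI 1, DEAE-Dextran) of P4 cells, CD4+ HeLa cells expressing β-galactosidase from a minimal HIV-1 LTR upon infection.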

Take `C=C(C)[C@@H]1CC[C@]2(C(=O)NCCc3cccc(C(=O)NCc4ccc(OCCCn5cncc5C(=O)OC)cc4)c3)CC[C@]3(C)C(CCC4[C@@]5(C)CC[C@H](O)C(C)(C)C5CC[C@]43C)C12` (some centres unmarked) [Example 234]: the EC50 in assay [1] amounted to 27 nM. Also, the IC50 with HIV-1NL4-3 is 18.5 nM.
On to `C=C(C)[C@@H]1CC[C@]2(C(=O)NCCc3cccc(C(=O)NCc4ccc(OCCCn5cnc(C(=O)OC)c5)cc4)c3)CC[C@]3(C)C(CCC4[C@@]5(C)CC[C@H](O)C(C)(C)C5CC[C@]43C)C12` (some centres unmarked) [Example 235], for which, in assay [1], the EC50 turned out to be 66.5 nM. For the same compound, the IC50 with HIV-1NL4-3 is 18 nM.
With `C=C(C)[C@@H]1CC[C@]2(C(=O)NCCc3cccc(C(=O)NCc4ccc(OCCCN5CCN(S(=O)(=O)CC)CC5)cc4)c3)CC[C@]3(C)C(CCC4[C@@]5(C)CC[C@H](O)C(C)(C)C5CC[C@]43C)C12` (some centres unmarked) [Example 236], the EC50 in assay [1] was 30 nM. Also, the IC50 with HIV-1NL4-3 was 19.8 nM.
On the same counts, the results for `C=C(C)[C@@H]1CC[C@]2(C(=O)NCCc3cccc(C(=O)NCc4ccc(O)c(C(=O)OC)c4)c3)CC[C@]3(C)C(CCC4[C@@]5(C)CC[C@H](O)C(C)(C)C5CC[C@]43C)C12` (some centres unmarked) [Example 239] are 105 nM and 32.1 nM.
With `C=C(C)[C@@H]1CC[C@]2(C(=O)NCCc3cccc(C(=O)NCc4ccc(O)c(C(=O)O)c4)c3)CC[C@]3(C)C(CCC4[C@@]5(C)CC[C@H](O)C(C)(C)C5CC[C@]43C)C12` (some centres unmarked) [Example 240], in assay [1], the EC50 came to 33 nM. The IC50 in the assay with HIV-1NL4-3 stood at 19 nM.
As to `C=C(C)[C@@H]1CC[C@]2(C(=O)NCCc3cccc(C(=O)NCc4ccc(OCCCN5CC(C)NC(C)C5)c(C(=O)O)c4)c3)CC[C@]3(C)C(CCC4[C@@]5(C)CC[C@H](O)C(C)(C)C5CC[C@]43C)C12` (some centres unmarked) [Example 241], the EC50 in assay [1] was 22.5 nM. In the assay on HIV-1NL4-3, the IC50 was determined as 5 nM.
Regarding `C=C(C)[C@@H]1CC[C@]2(C(=O)NCCc3cccc(C(=O)NCc4ccc(OCCCn5ccnc5)c(C(=O)O)c4)c3)CC[C@]3(C)C(CCC4[C@@]5(C)CC[C@H](O)C(C)(C)C5CC[C@]43C)C12` (some centres unmarked) [Example 242], the EC50 in assay [1] was 91 nM. Also, in the assay with HIV-1NL4-3, the IC50 was found to be 41.3 nM.
`C=C(C)[C@@H]1CC[C@]2(C(=O)NCCc3cccc(C(=O)NCc4ccc(OCCCN5CCN(S(=O)(=O)CC)CC5)c(C(=O)O)c4)c3)CC[C@]3(C)C(CCC4[C@@]5(C)CC[C@H](O)C(C)(C)C5CC[C@]43C)C12` (some centres unmarked) [Example 243]: the concentration for a half-maximal effect (EC50) in assay [1] was determined as 26 nM. Further, the IC50 with HIV-1NL4-3 amounted to 17.5 nM.
Regarding `C=C(C)[C@@H]1CC[C@]2(C(=O)NCCc3cccc(C(=O)NCc4ccc(OCCCN5CCNCC5)c(C(=O)O)c4)c3)CC[C@]3(C)C(CCC4[C@@]5(C)CC[C@H](O)C(C)(C)C5CC[C@]43C)C12` (some centres unmarked) [Example 245], the EC50 in assay [1] was 35 nM. Also, in the assay on HIV-1NL4-3, the IC50 is 27.4 nM.
With `C=C(C)[C@@H]1CC[C@]2(C(=O)NCCc3cccc(C(=O)NCc4ccc(OCCCn5cncc5C(=O)O)c(C(=O)O)c4)c3)CC[C@]3(C)C(CCC4[C@@]5(C)CC[C@H](O)C(C)(C)C5CC[C@]43C)C12` (some centres unmarked) [Example 246], the EC50 in assay [1] turned out to be 233 nM. Further, in the assay with HIV-1NL4-3, the IC50 worked out at 57.3 nM.
As to `C=C(C)[C@@H]1CC[C@]2(C(=O)NCCc3cccc(S(=O)(=O)NCc4ccc(C(=O)OC)cc4)c3)CC[C@]3(C)C(CCC4[C@@]5(C)CC[C@H](O)C(C)(C)C5CC[C@]43C)C12` (some centres unmarked) [Example 250], the EC50 in assay [1] came out at 594 nM. Also, the IC50 with HIV-1NL4-3 was 106 nM.
In the case of `C=C(C)[C@@H]1CC[C@]2(C(=O)NCCc3cccc(S(=O)(=O)NCc4ccc(C(=O)O)cc4)c3)CC[C@]3(C)C(CCC4[C@@]5(C)CC[C@H](O)C(C)(C)C5CC[C@]43C)C12` (some centres unmarked) [Example 251], the EC50 in assay [1] stood at 258 nM. Also, the IC50 with HIV-1NL4-3 was 68 nM.
Regarding `C=C(C)[C@@H]1CC[C@]2(C(=O)NCCc3cccc(C(=O)NCc4ccc(C#N)cn4)c3)CC[C@]3(C)C(CCC4[C@@]5(C)CC[C@H](O)C(C)(C)C5CC[C@]43C)C12` (some centres unmarked) [Example 252], in assay [1], the EC50 turned out to be 14 nM. Further, the IC50 with HIV-1NL4-3 worked out at 25 nM.
As to `C=C(C)[C@@H]1CC[C@]2(C(=O)NCCc3cccc(C(=O)NCc4ccc(-c5nn[nH]n5)cn4)c3)CC[C@]3(C)C(CCC4[C@@]5(C)CC[C@H](O)C(C)(C)C5CC[C@]43C)C12` (some centres unmarked) [Example 253], in assay [1], the EC50 was 3.5 nM. The IC50 in the assay on HIV-1NL4-3 turned out to be 10.8 nM.
As for `C=C(C)[C@@H]1CC[C@]2(C(=O)NCCc3cccc(-c4nnc(-c5ccc(C(=O)O)cn5)[nH]4)c3)CC[C@]3(C)C(CCC4[C@@]5(C)CC[C@H](O)C(C)(C)C5CC[C@]43C)C12` (some centres unmarked) [Example 254], the EC50 in assay [1] came out at 351 nM. In addition, in the assay on HIV-1NL4-3, the 50% inhibitory concentration (IC50) was 69 nM.
`C=C(C)[C@@H]1CC[C@]2(C(=O)NCCc3cccc(C(=O)NCC(O)CO)c3)CC[C@]3(C)C(CCC4[C@@]5(C)CC[C@H](O)C(C)(C)C5CC[C@]43C)C12` (some centres unmarked) [Example 256]: the EC50 in assay [1] was 204 nM. Besides, the IC50 with HIV-1NL4-3 stood at 50.5 nM.
`C=C(C)[C@@H]1CC[C@]2(C(=O)NCCc3cccc(C(=O)NCC4COC(C(=O)O)CO4)c3)CC[C@]3(C)C(CCC4[C@@]5(C)CC[C@H](O)C(C)(C)C5CC[C@]43C)C12` (some centres unmarked) [Example 257]: the EC50 in assay [1] turned out to be 328 nM. Also, the IC50 in the assay on HIV-1NL4-3 was 54 nM.
`C=C(C)[C@@H]1CC[C@]2(C(=O)NCCc3cccc(C(=O)NCC4COCC(C(=O)O)O4)c3)CC[C@]3(C)C(CCC4[C@@]5(C)CC[C@H](O)C(C)(C)C5CC[C@]43C)C12` (some centres unmarked) [Example 258]: in assay [1], the EC50 came out at 984 nM. Also, the IC50 with HIV-1NL4-3 stood at 112 nM.
In the case of `C=C(C)[C@@H]1CC[C@]2(C(=O)NCCc3ccc(F)c(C(=O)NCc4ccc(C(=O)OC)cn4)c3)CC[C@]3(C)C(CCC4[C@@]5(C)CC[C@H](O)C(C)(C)C5CC[C@]43C)C12` (some centres unmarked) [Example 261], the EC50 in assay [1] was 8.9 nM. The IC50 in the assay on HIV-1NL4-3 turned out to be 14.5 nM.
For the compound `C=C(C)[C@@H]1CC[C@]2(C(=O)NCCc3ccc(F)c(C(=O)NCc4ccc(C(=O)O)cn4)c3)CC[C@]3(C)C(CCC4[C@@]5(C)CC[C@H](O)C(C)(C)C5CC[C@]43C)C12` (some centres unmarked) [Example 262], in assay [1], the concentration giving a half-maximal response (EC50) was 7.2 nM. Moreover, the IC50 with HIV-1NL4-3 came out at 11.5 nM.
For `CC(=O)[C@@H]1CC[C@]2(C(=O)NCCc3cccc(C(=O)NCc4ccc(C(=O)O)cc4)c3)CC[C@]3(C)C(CCC4[C@@]5(C)CC[C@H](O)C(C)(C)C5CC[C@]43C)C12` (some centres unmarked) [Example 264], the EC50 in assay [1] turned out to be 161 nM. Moreover, the IC50 with HIV-1NL4-3 came out at 29.5 nM.
On the same counts, the results for `C=C(CN1CCCC1)[C@@H]1CC[C@]2(C(=O)NCCc3cccc(C(=O)NCc4ccc(C(=O)O)cn4)c3)CC[C@]3(C)C(CCC4[C@@]5(C)CC[C@H](O)C(C)(C)C5CC[C@]43C)C12` (some centres unmarked) [Example 265] are 172 nM and 58 nM.
For the compound `C=C(COC)[C@@H]1CC[C@]2(C(=O)NCCc3cccc(C(=O)NCc4ccc(C(=O)O)cn4)c3)CC[C@]3(C)C(CCC4[C@@]5(C)CC[C@H](O)C(C)(C)C5CC[C@]43C)C12` (some centres unmarked) [Example 266], the EC50 in assay [1] worked out at 24 nM. For the same compound, in the assay on HIV-1NL4-3, the IC50 is 8.3 nM.
On the same counts, the results for `C=C(CSCCO)[C@@H]1CC[C@]2(C(=O)NCCc3cccc(C(=O)NCc4ccc(C(=O)O)cn4)c3)CC[C@]3(C)C(CCC4[C@@]5(C)CC[C@H](O)C(C)(C)C5CC[C@]43C)C12` (some centres unmarked) [Example 267] are 46 nM and 17.3 nM.
For `C=C(CSCCC(=O)O)[C@@H]1CC[C@]2(C(=O)NCCc3cccc(C(=O)NCc4ccc(C(=O)O)cc4)c3)CC[C@]3(C)C(CCC4[C@@]5(C)CC[C@H](O)C(C)(C)C5CC[C@]43C)C12` (some centres unmarked) [Example 268], the EC50 in assay [1] was 411 nM. For the same compound, in the assay with HIV-1NL4-3, the IC50 is 104 nM.
